According to article PMC8157947, “Peptidic boronic acids are potent cell-permeable inhibitors of the malaria parasite egress serine protease SUB1” (Proceedings of the National Academy of Sciences of the …, 2021):
“And” between values parts separate entries of the source, which are not always exact repeats. Equal entries are not always repeated.

What was measured:
[1] = tested on: P. falciparum 3D7 schizonts; experiment: Short-term egress/invasion assay, ring formation by flow cytometry; type: cell-based, Plasmodium falciparum
Experimental: For this, P. falciparum cultures containing synchronous, highly mature schizonts were supplemented with compounds 3b, 3e, 3i, and 3j at a range of dilutions, then allowed to undergo egress and invasion for just 4 h in the continued presence of the compounds, before assessing formation of newly invaded “ring” stage parasites by flow cytometry.
(§1) Short-term egress, invasion, and washout assays were performed essentially as described previously ([27], [28], [42]). Briefly, highly synchronous mature Percoll-enriched schizonts with or without added fresh RBCs (∼5% parasitaemia final) were incubated with compounds under test or vehicle only (DMSO, 1% vol/vol). For washout assays, schizonts were treated with C2 or various concentrations of inhibitor 3j for 1 to 4 h, then washed extensively (at least four times) prior to addition to fresh RBCs where required. After incubation at 37 °C for just 1 to 4 h (or overnight for invasion assays) to allow schizont rupture, cells were pelleted. Clarified culture supernatants were assessed for extent of hemoglobin release (a measure of schizont rupture) by absorption spectroscopy at 415 nm as described previously ([28]) or analyzed by Western blot using antibodies against SERA5 ([7], [11]). To quantify generation of new rings, samples of the cultures were fixed with 4% paraformaldehyde/0.02% glutaraldehyde and stained with SYBR Green I (Life Technologies) and then analyzed by flow cytometry on a BD FACSVerse using BD FACSuite software. Data were analyzed using FlowJo software. All cultures were also routinely analyzed by microscopic examination of Giemsa-stained thin films to visually assess parasite morphology.

P. falciparum schizonts [2] = experiment: Washout egress assay, hemoglobin release into culture supernatants; type: cell-based; conditions: Plasmodium falciparum; 4 h pretreatment, then washout
Experimental: as §1

rPfSUB1 = rPfSUB1 (Plasmodium falciparum, UniProt Q8I0V0); experiment: Progress curve kinetic analysis of rPfSUB1 inhibition
Sequence of rPfSUB1 (Q8I0V0 218-688): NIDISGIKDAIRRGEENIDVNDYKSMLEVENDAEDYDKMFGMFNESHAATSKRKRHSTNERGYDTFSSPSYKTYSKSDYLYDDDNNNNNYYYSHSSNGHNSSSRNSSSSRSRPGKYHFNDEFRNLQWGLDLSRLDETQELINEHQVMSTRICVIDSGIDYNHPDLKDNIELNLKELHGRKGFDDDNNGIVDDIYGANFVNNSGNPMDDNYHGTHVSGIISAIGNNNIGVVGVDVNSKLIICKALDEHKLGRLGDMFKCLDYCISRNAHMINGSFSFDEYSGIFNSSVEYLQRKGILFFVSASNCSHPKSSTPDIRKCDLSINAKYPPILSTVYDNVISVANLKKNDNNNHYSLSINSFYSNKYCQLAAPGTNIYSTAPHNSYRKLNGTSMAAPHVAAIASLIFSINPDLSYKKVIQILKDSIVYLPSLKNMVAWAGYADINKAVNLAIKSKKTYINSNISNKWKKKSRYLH
Description: Boronic acids form reversible covalent bonds with serine and threonine proteases ([26]). Inhibition is generally time dependent, and the covalent nature of the binding can result in relatively long target occupancy times despite the reversibility of the bond. […] To analyze the kinetic characteristics of the interaction between 3j and rPfSUB1, we used progress curve analysis to continuously monitor rPfSUB1-mediated cleavage of a fluorogenic substrate in the presence of a range of concentrations of 3j. […] Under such conditions, fit of the progress curves by nonlinear regression to Eq. 1 (see Materials and Methods) allows determination of kobs, the pseudo first-order rate constant for onset of inhibition. The kobs is effectively a composite of the on and off rates, so least linear squares regression of the calculated kobs values against inhibitor concentration allows determination of values of the pseudo first-order dissociation rate constant koff and the second-order association rate constant kon for the inhibitor-rPfSUB1 interaction, based respectively on values from the y-intercept and slope.
Progress curves of SERA4st1F-6R12 cleavage by rPfSUB1 were acquired at seven concentrations of inhibitor compound 3j over a period of 35 min, during which fluorescence increases in the absence of inhibitor were linear. The obtained progress curves (four independent replicates) were fit using GraphPad Prism 8.0 software to the following time-dependent inhibition equation: [P] = Vs∗t + ((Vi−Vs)/kobs)∗(1−exp(−kobs∗t)).
In the equation, Vi is the initial velocity, Vs is the final steady-state velocity, and kobs reflects the observed pseudo first-order rate of inactivation. The obtained kobs values were plotted against compound concentration using a linear least squares fit. All statistical analysis was carried out using GraphPad Prism 8.

P. falciparum schizonts [3] = experiment: MitoTracker Red CMXRos viability staining; type: cell-based, Plasmodium falciparum; conditions: 10 μM, 1 h
Experimental: Viewing chambers for live parasite microscopic examination were constructed as previously described ([7]). All images were recorded on a Nikon Eclipse Ni light microscope fitted with a Hamamatsu C11440 digital camera and Nikon N Plan Apo λ 63×/1.45NA oil immersion objective. For time-lapse video microscopy, differential interference contrast (DIC) images were taken at 10 s intervals over 30 min while fluorescence (mNeon Green) images were taken every 2 min to prevent bleaching. Time-lapse videos were analyzed and annotated using Fiji ([44]). For viability staining using the vital mitochondrial dye MitoTracker Red CMXRos (ThermoFisher Scientific; stored as a 10 μM stock in DMSO), the dye was added (20 nM final concentration) to a suspension of schizonts pretreated for 1 h with either DMSO (control, 1% vol/vol) or compound 3j (10 μM). The schizonts were incubated with the dye for 15 min at 37 °C, then washed twice, transferred to a viewing chamber, and observed immediately by dual DIC/fluorescence microscopy.

[4] = tested on: PfSUB1-mediated proteolytic processing of SERA5; experiment: Western blot of SERA5 processing after washout; type: cell-based, Plasmodium falciparum; conditions: 4 h pretreatment then washout
Description: To seek unambiguous confirmation that PfSUB1 is the intracellular target of compound 3j, we examined the effects of the compound on the PfSUB1-mediated proteolytic processing of the established endogenous PfSUB1 substrate SERA5, an abundant parasite PV protein that only becomes accessible to cleavage upon discharge of PfSUB1 into the PV in the minutes leading up to egress and is then released in a processed form into culture supernatants ([6], [11], [12]). […] It was concluded that compound 3j prevents egress and parasite proliferation through direct inhibition of intracellular PfSUB1.
Short-term egress, invasion, and washout assays were performed essentially as described previously ([27], [28], [42]). […] Clarified culture supernatants were assessed for extent of hemoglobin release (a measure of schizont rupture) by absorption spectroscopy at 415 nm as described previously ([28]) or analyzed by Western blot using antibodies against SERA5 ([7], [11]). To quantify generation of new rings, samples of the cultures were fixed with 4% paraformaldehyde/0.02% glutaraldehyde and stained with SYBR Green I (Life Technologies) and then analyzed by flow cytometry on a BD FACSVerse using BD FACSuite software. Data were analyzed using FlowJo software. All cultures were also routinely analyzed by microscopic examination of Giemsa-stained thin films to visually assess parasite morphology.

[5] = target: T1, recombinant PfSUB1 (rPfSUB1) (Plasmodium falciparum, UniProt Q8I0V0); experiment: rPfSUB1 fluorogenic peptide substrate cleavage inhibition assay; type: biochemical; conditions: versus mammalian trypsin, chymotrypsin and elastase
T1 construct: Chymotrypsin-treated rPfSUB1 (expressed and purified as described previously); made in house
T1 sequence (Q8I0V0 218-688): as above

CC(=O)NC(C(=O)NC(C(=O)NCC(=O)NC(C)B(O)O)C(C)C)C1CCCC1 (stereo not shown) [3j]
schizont phenotype in Giemsa-stained thin films ([1]; 10 μM, 4 h incubation): arrest of unruptured schizonts with no ring formation | EC50 ([1]; Plasmodium falciparum, mature 3D7 schizonts with RBCs, 4 h, flow cytometry): 2500 ± 300 nM | EC50 (P. falciparum schizonts [2]): ~2000 nM | Ki (rPfSUB1): 1 nM | t1/2^off (bound half-life) (rPfSUB1; from koff): ~31 min and ~30 min | koff (rPfSUB1; read-out: koff, dissociation rate constant): 0.00037 s⁻¹ | kon (rPfSUB1; read-out: kon, second-order association rate constant): 360000 M⁻¹ s⁻¹ | viability (MitoTracker Red CMXRos incorporation) (P. falciparum schizonts [3]): remained viable | SERA5 proteolytic processing [4]: prevented proteolytic processing and release of SERA5 | selectivity for PfSUB1 [5]: > 100 fold
